According to patent US20130210907A1, “METHOD FOR PREVENTING OR TREATING ENTEROCHROMAFFIN CELL HYPERPLASIA-RELATED DISEASES BY QUERCETIN ADMINISTRATION” (HONG KONG BAPTIST UNIVERSITY, priority 2012, published 2013):

Experiments:
PI-IBS rats [1] = experiment: Colonic tissue 5-HT content (capillary electrophoresis, laser-induced fluorescence); format: in vivo, rat; settings: for 5-HT content: PI-IBS rats, colon
Procedure: Six groups of 5 rats are tested. The groups setting and treatments are as described in Example 1. Different from Example 1, AWR test are not applied to the rats in this experiment in order to obtain the basal data without CRD stimulus. After the last drug administration, a 6 cm proximal colon (1-2 cm from caecum) is collected and divided into 3 parts, the proximal is fixed in 4% paraformaldehyde and embedded in paraffin for EC cell staining; the middle part is collected for 5-HT content measurement and electron microscopic evaluation, and the distal part is for western blotting analysis.
5-HT content in the colon tissue is assayed based on our previously reported procedure in Qi S D, Tian S L, Xu H X, Sung J J, Bian Z X. Quantification of luminally released serotonin in rat proximal colon by capillary electrophoresis with laser-induced fluorescence detection. Anal Bioanal Chem. 2009 April; 393(8):2059-66. Briefly, the colon segment is homogenized in 15% iced trichloroacetic acid; for 2 min and stored at 4° C. for 2 h. After centrifuge at 10,000 G for 15 min, the supernatant of each sample is filtered using 0.22 μm filters and extracted with diethyl ether for five times to remove the trichloroacetic acid. The prepared samples are added to derivatization solution (150 mM sodium tetraborate, 25% acetonitrile, 2 mM CFSE) and incubated for […] in dark at room temperature. The 5-HT content is analyzed by capillary electrophoresis with laser-induced fluorescence detection and expressed as nanogram per milligram (wet weight of tissue).

PI-IBS rats [2] = experiment: Electron microscopy of EC cell secretory granules after CRD; format: in vivo, rat; settings: median dose
Procedure: For electron microscopy evaluation, the colon tissues are collected from the rats treated with AWR test so as to investigate the feature of mechanical stimulus-induced 5-HT release. Colon segment is fixed for 24 h at 4° C. in fixative containing 4% paraformaldehyde and 0.2% picric acid in 0.1M PB, then washed and embedded in gelatin. Thin sections are cut and picked up on 200-mesh grids. The sections are stained with uranyl acetate and lead citrate. Examination and photography of sections are carried out using Philips CM 10 transmission electron microscope (Philips Scientifics, Netherlands). At the ultra-structural level, EC cell are distinguished from other enteroendocrine cells by the pleomorphic nature of their secretory granules. The EC cells in which there are many clear secretory granules without cores and granules with eccentric cores are considered as the activated one with excessive 5-HT release.

QGP-1 cells [3] = experiment: Cytotoxicity by lactate dehydrogenase (LDH) release; format: cell-based, human; settings: QGP-1, 25-100 μM, 24 h
Procedure: The cytotoxicity of Quercetin is determined by lactate dehydrogenase (LDH) assay in QGP-1 cells. Cells are seeded at a density of 5,000 cells/well into 96-well plates and incubated with Quercetin (0-100 μM, 0.01% DMSO) for 24 h. Release of cytoplasmic enzyme lactate dehydrogenase is measured after incubation by using colorimetric assay kit (Roche Molecular Biochemicals, Germany) according to the manufacturer's instructions.

QGP-1 cells [4] = experiment: Sub-G0/G1 fraction by flow cytometry; format: cell-based, human; settings: QGP-1, 25~100 μM, 24 h
Procedure: QGP-1 cells are seeded at a density of 10×10^4 cells/ml and pre-incubated overnight. After incubation with or without Quercetin (0-100 μM) for 24 h, cells are harvested by trypsinization and fixed in 70% ethanol at 4° C. overnight. The cells are centrifuged to remove ethanol and washed twice using ice-cold PBS. The cell pallets are resuspended in 500 n1 propidium iodide solution (0.1% Triton X-100, 50 μg/ml propidium iodide in PBS) containing 50 μg/ml RNase and incubated at 37° C. for 30 min and protected from the light. The DNA content of 10,000 cells is detected by BD FASCanto Flow Cytometry and analyzed using CellFit software (Becton Dickinson, Heidelberg, Germany). The data are representative of those obtained in at least three experiments.
For flow cytometric analysis, cells with sub-G0/G1 DNA content are stained with propidium iodide, and the methods are as described in section 2 of Example 8. […] Based on the results form LDH assay and apoptosis detection, Quercetin indeed has cytotoxicity and can further induce cell apoptosis.

O=c1c(O)c(-c2ccc(O)c(O)c2)oc2cc(O)cc(O)c12 [Quercetin, 2-(3,4-dihydroxyphenyl)-3,5,7-trihydroxy-4H-chromen-4-one]
5-HT content (PI-IBS rats [1]; 5 mg/kg i.g.): 5.15 ± 0.58 ng/mg | 5-HT content (PI-IBS rats [1]; 10 mg/kg i.g.): 4.63 ± 0.92 ng/mg | 5-HT content (PI-IBS rats [1]; 20 mg/kg i.g.): 5.50 ± 0.65^ ng/mg | Decrease of 5-HT content compared with the PI-IBS group (PI-IBS rats [1]; low dose (5 mg/kg)): 28% | Decrease of 5-HT content compared with the PI-IBS group (PI-IBS rats [1]; median dose (10 mg/kg)): 35% | Secretory granules of EC cells compared to PI-IBS rats (electron micrographs) (PI-IBS rats [2]): became denser | LDH release (QGP-1 cells [3]): significant and dose-dependent increase | Sub-G0/G1 fraction (QGP-1 cells [4]): concentration-dependently increases
